# In patent US20260317314A1, “NITROGEN-CONTAINING HETEROCYCLIC COMPOUND AND USE THEREOF” (JIANGSU DEYUAN PHARMACEUTICAL CO.,LTD., priority 2023, published 2026):
# Legend:
# [1] = In vivo pharmacokinetics study in rats; set-up: species or system SD rat; conditions: male SD rats, oral 2 mg/kg; for AUC(0-t) at 24 h: read-out: AUC0-24 h
# [2] = In vivo pharmacokinetic study in cynomolgus monkeys; set-up: species or system cynomolgus monkey; conditions: male cynomolgus monkeys
# [3] = Permeability test in MDR1-MDCKII monolayer cell model; type: in vitro ADME; conditions: dog; for efflux ratio at 2.5 h, 2 µM: MDCK-MDR1, pH 7.4, ER=Papp(BA)/Papp(AB); for Papp A→B at 2.5 h, 2 µM: MDCK-MDR1, pH 7.4, pH 7.40, 2.5 hours, 37±1° C., read-out: Apparent permeability coefficient (Papp (AB))
# Protocol: Experimental objective: The permeability and efflux ratio of the compound of the present disclosure were determined using the MDR1-MDCKII monolayer cell model to assess its membrane permeability and potential for P-gp-mediated efflux transport.
# Experimental protocol: MDR1-MDCKII cells (obtained from the Netherlands Cancer Institute) were seeded in 96-well plates (obtained from Corning) at a cell density of 3.33×10^5 cells/mL and cultured for 4 to 7 days to form confluent cell monolayers. Hank's balanced salt solution containing 10 mM HEPES (pH 7.40) was used as the transport buffer. The test compound was evaluated for bidirectional transport at a concentration of 2 μM, with the DMSO concentration in the incubation system maintained below 1%. After adding the samples, the cell plate was incubated at 37±1° C., 5% CO2, and saturated humidity for 2.5 hours. All samples were quantitatively analyzed using the LC-MS/MS method. The apparent permeability coefficient (Papp, cm/s) and efflux ratio (ER) were calculated using the following formula. Apparent permeability coefficient (Papp, cm/s) was calculated using the following formula: Papp=(dCr/dt)×Vr/(A×C0). Herein, dCr/dt represents the cumulative concentration of the compound at the receiving end per unit time (μM/s); Vr is the volume of the solution at the receiving end (with solution volumes at the apical and basolateral ends being 0.075 mL and 0.250 mL, respectively); A is the relative surface area of the cell monolayer (0.143 cm^2); C0 is the initial concentration of the test substance at the dosing end (μM) or the peak area ratio of the reference substance. The efflux ratio was calculated using the following formula: ER=Papp(BA)/Papp(AB).
# [4] = In vitro liver microsome metabolic stability study; type: in vitro ADME; conditions: human liver microsomes 0.5 mg/mL, compound 1 μM, 37° C., up to 60 minutes; read-out: Intrinsic hepatic clearance CLint(liver)
# Protocol: Stock solution: 10 mM in DMSO.
# Only 54 μL of microsomal working solution, 6 μL of NADPH regeneration system working solution, and 180 μL of stop solution were added to the blank plate.
# LC-MS/MS analysis was performed.
# [5] = Plasma protein binding rate test, SD rat (equilibrium dialysis); type: in vitro ADME; conditions: 37° C., read-out: Plasma protein binding rate (%) in SD rats (converted)
# Text: (§1) The sample was thoroughly mixed.
# [6] = Plasma protein binding rate test, cynomolgus monkey (equilibrium dialysis); type: in vitro ADME; conditions: 37° C., read-out: Plasma protein binding rate (%) in cynomolgus monkeys (converted)
# Text: as §1
# [7] = Plasma protein binding rate test, human (equilibrium dialysis); type: in vitro ADME; conditions: 37° C.
# Text: as §1
# plasma protein [8] = assay: Plasma protein binding rate test, cynomolgus monkey (equilibrium dialysis); type: in vitro ADME; conditions: 37° C., 4 hours
# Text: as §1
# plasma protein [9] = assay: Plasma protein binding rate test, human (equilibrium dialysis); type: in vitro ADME; conditions: 37° C., 4 hours
# Text: as §1
# human CYP11B2 = target: T1, human CYP11B2 (Homo sapiens, UniProt P19099); assay: In vitro activity assay of monoclonal cells overexpressing human CYP11B2; type: cell-based; conditions: G402 cells overexpressing human CYP11B2; substrate 11-deoxycorticosterone; 16 hours; aldosterone by LCMS/MS
# T1 construct: expressed in transfected cells; host or cells: human renal leiomyoma G402 cell line (monoclonal cells overexpressing human CYP11B2)
# T1 sequence (P19099 25-503): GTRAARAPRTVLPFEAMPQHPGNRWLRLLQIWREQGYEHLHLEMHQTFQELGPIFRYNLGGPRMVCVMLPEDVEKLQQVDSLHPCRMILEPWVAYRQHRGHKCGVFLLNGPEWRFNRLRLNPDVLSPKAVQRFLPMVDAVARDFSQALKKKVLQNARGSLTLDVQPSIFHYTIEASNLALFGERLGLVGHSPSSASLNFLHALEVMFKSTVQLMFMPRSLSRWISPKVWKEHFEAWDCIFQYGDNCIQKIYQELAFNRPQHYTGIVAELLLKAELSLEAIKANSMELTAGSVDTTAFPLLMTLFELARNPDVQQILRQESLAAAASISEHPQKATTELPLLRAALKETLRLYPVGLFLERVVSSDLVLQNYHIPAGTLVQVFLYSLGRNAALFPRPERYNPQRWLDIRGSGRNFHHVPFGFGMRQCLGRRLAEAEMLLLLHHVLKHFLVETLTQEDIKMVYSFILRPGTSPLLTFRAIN
# Protocol: The human renal leiomyoma G402 cell line overexpressing human CYP11B2 was selected to serve as a compound activity screening system.
# • 2) Compound details: The test compound was prepared as a 10 μM working concentration using DMSO.
# Day 1: Cells were digested, and human renal leiomyoma G402 cells overexpressing human CYP11B2 were resuspended to 1×10^5 cells/mL, with 100 μL seeded into a 96-well plate.
# Day 2: The medium was replaced with DMEM/F12 containing 2.5% charcoal-stripped fetal bovine serum; test compounds were added: 5 μL of test compound was added to the cell culture medium to achieve final concentrations of 10000, 2500, 625, 156.25, 39.06, 9.77, 2.44, 0.61, 0.15, and 0 nM (with a DMSO content of 0.1%).
# After one hour, the substrate was added: 30 mM 11-deoxycorticosterone was diluted 1500-fold with culture medium, and 5 μL was dispensed per well to achieve a final concentration of […], followed by incubation for 16 hours.
# Day 3: The cell supernatant was collected and added to 200 μL of a methanol solution containing internal standards (internal standards: 35 ng/mL ketoprofen or 7.5 ng/mL carbamazepine or 5 ng/mL diphenhydramine or 10 ng/mL tolbutamide). The mixture was vortexed and centrifuged (4000×g, 4° C., 5 minutes). Then, 100 μL of the supernatant was taken and mixed with 100 μL of pure water. The mixture was centrifuged (4000 g, 4° C., 15 min), and the supernatant was analyzed by ESI-LCMS/MS. • 4) Data analysis:
# Ratio=Aldosterone peak area/Internal standard peak area
# Control activity %=(Ratio test compound/Ratio DMSO)×100%
# “Ratio test compound” represents the Ratio values at different concentrations of the test compound.
# “Ratio DMSO” represents the Ratio value without the addition of the test compound. • X=Log (compound concentration) • Y=Control activity %
# The IC50 of the test compound was determined by fitting to a nonlinear regression equation using XLfit 5.5.0.
# [10] = system: patients with refractory hypertension; conditions: cited from earlier work
# [11] = cynomolgus monkey, plasma, oral 3 mg/kg
# [12] = 2 mg dose, patients with refractory hypertension
smiles,measurement,setting,value
"CCC(=O)N[C@@H]1CCCc2c(-c3ccc4c(ccc(=O)n4C)c3)cncc21 (single isomer, unassigned) [Compound 001]",bioavailability,"[1]; rat, plasma",80%
same,half-life,"[1]; rat, plasma",4.61 h
same,Cmax,"[1]; rat, plasma",7.63 µM
same,AUC(0-t) at 24 h,"[1]; rat, plasma",59.1 µM·h
same,bioavailability,[2]; [11],120%
same,half-life,[2]; [11],4.99 h
same,Cmax,"[2]; cynomolgus monkey, oral 3 mg/kg, plasma",4 µM
same,AUC(0-t) at 24 h,"[2]; cynomolgus monkey, oral 3 mg/kg, plasma, read-out: AUC0-24 h",23.2 µM·h
same,"efflux ratio at 2.5 h, 2 µM",[3],1.76
same,"Papp A→B at 2.5 h, 2 µM",[3],17.2 ×10⁻⁶ cm/s
same,CLint scaled at 1 µM,[4],< 8.6 mL/min/kg
same,fraction unbound at 4 h,[5],0.079
same,fraction unbound at 4 h,[6],0.254
same,fraction unbound at 4 h,[7],0.239
"CCC(=NOC)NC1CCCc2c(-c3ccc4c(c3)CCC(=O)N4C)cncc21 (single isomer, unassigned) [Compound 005]",bioavailability,"[1]; rat, plasma",111%
same,half-life,"[1]; rat, plasma",2.77 h
same,Cmax,"[1]; rat, plasma",1.31 µM
same,AUC(0-t) at 24 h,"[1]; rat, plasma",7.8 µM·h
same,"efflux ratio at 2.5 h, 2 µM",[3],0.7
same,"Papp A→B at 2.5 h, 2 µM",[3],23.1 ×10⁻⁶ cm/s
same,fraction unbound at 4 h,[5],0.102
same,fraction unbound at 4 h,[6],0.127
same,fraction unbound at 4 h,[7],0.106
"Cc1noc(C)c1C(=O)N[C@@H]1CCCc2c(-c3cc4ccc(=O)n(C)c4cc3F)cncc21 (single isomer, unassigned) [Compound 020]",Plasma protein binding rate (%) in cynomolgus monkeys,plasma protein [8],90.3%
same,Human plasma protein binding rate (%),plasma protein [9],85.6%
"CCC(=O)NC1CCCc2c(-c3cc4ccc(=O)n(C)c4s3)cncc21 (single isomer, unassigned) [Compound 023]",F,[1],109%
same,T1/2,[1],3.6 h
same,AUC0-24 h,[1]; plasma,44.234 µM·h
same,Cmax,[1]; plasma,6.92 µM
same,F,[2]; oral 1 mg/kg,76.5%
same,T1/2,[2]; oral 1 mg/kg,4.80 h
same,AUC0-24 h,"[2]; oral 1 mg/kg, plasma",8.916 µM·h
same,Cmax,"[2]; oral 1 mg/kg, plasma",1.32 µM
same,Plasma protein binding rate (%) in cynomolgus monkeys,plasma protein [8],69.0%
same,Human plasma protein binding rate (%),plasma protein [9],69.6%
"CCC(=O)N[C@@H]1CCCc2c(-c3ccc4c(c3)c(C)cc(=O)n4C)cncc21 (single isomer, unassigned) [Compound 027]",IC50,human CYP11B2,62.7 nM
"CCC(=O)NC1CCCc2c(-c3cc(F)c4c(c3)OCC(=O)N4C)cncc21 (single isomer, unassigned) [Compound 031]","efflux ratio at 2.5 h, 2 µM",[3],0.89
same,"Papp A→B at 2.5 h, 2 µM",[3],20 ×10⁻⁶ cm/s
same,CLint scaled at 1 µM,[4],< 8.6 mL/min/kg
same,fraction unbound at 4 h,[6],0.203
same,fraction unbound at 4 h,[7],0.193
"CCC(=O)NC1CCCc2c(-c3cc4c(cc3F)N(C)C(=O)CO4)cncc21 (single isomer, unassigned) [Compound 032]","efflux ratio at 2.5 h, 2 µM",[3],0.86
same,"Papp A→B at 2.5 h, 2 µM",[3],22.6 ×10⁻⁶ cm/s
same,CLint scaled at 1 µM,[4],< 8.6 mL/min/kg
same,fraction unbound at 4 h,[6],0.205
same,fraction unbound at 4 h,[7],0.151
"CCC(=O)NC1CCOc2c(-c3cc4ccc(=O)n(C)c4s3)cncc21 (single isomer, unassigned) [Compound 045]","efflux ratio at 2.5 h, 2 µM",[3],1.3
same,"Papp A→B at 2.5 h, 2 µM",[3],16.7 ×10⁻⁶ cm/s
same,fraction unbound at 4 h,[6],0.32
same,fraction unbound at 4 h,[7],0.239
CCC(=O)N[C@@H]1CCCc2c(-c3ccc4c(c3)CCC(=O)N4C)cncc21 [Baxdrostat],office systolic and diastolic blood pressure,[10]; [12],efficacy in reducing office systolic and diastolic blood pressure
same,safety and tolerability,[10]; [12],favorable safety and tolerability profiles
same,aldosterone secretion levels,[10]; clinical studies,dose-dependent reduction
same,blood pressure,[10]; clinical studies,dose-dependent reduction
same,blood pressure reduction,[10]; phase 2 trials,significant blood pressure reduction
same,cortisol levels,[10]; phase 2 trials,no impact on cortisol levels
same,elevated blood potassium,[10]; phase 2 trials,rare occurrence of elevated blood potassium
same,steroid precursor accumulation,[10]; phase 2 trials,absence of steroid precursor accumulation
